# Test system: C6 cells (rat glioma) and BAEC cells (bovine aortic endothelial)
# Assay: In vitro inhibition of CHP-induced oxidative stress (DCF fluorescence)
# Type: cell-based
# Conditions: 500 µM CHP, 4, 20, 100 and 500 µM compound, 30 minutes; depending on the concentrations and cell line
# Protocol: The method used was essentially the one reported by Rüweler M. et al. ("Inhibition of peroxide-induced radical generation by plant polyphenols in C6 astroglioma cells" (2008) Toxicol in vitro 22, 1377-81), with a few minor modifications.
# The cells were seeded in phenol-red free DMEM (Sigma Aldrich) into 96-well plates with 5% FBS and 20 mM HEPES at a density of 40,000 cells/well. After 48 hours, the medium was substituted by HBSS (Hanks' Balanced Salt Solution, Sigma) containing 10 µM of dihydro-2',7'-dichlorofluorescein diacetate (H2DCF-DA, Sigma Aldrich) and incubated in darkness for 30 minutes at 37 °C, in order to load the cells with fluorescent dye. H2DCF-DA was hydrolyzed enzymatically by the intracellular esterases to form non-fluorescent H2DCF, which was then rapidly oxidized to form 2',7'-dichlorofluorescein (DCF) being highly fluorescent in the presence of reactive species (RS). The intensity of DCF fluorescence is directly proportional to the amount of RS formed.
# After carrying out two washes, the cells were exposed to 500 µM of CHP and various concentrations (4, 20, 100 and 500 µM) of the compounds of the invention for 30 minutes at 37 °C. Fluorescence was then measured, after cell washing, by a microplate reader at an excitation wavelength of 485 nm and an emission wavelength of 535 nm.
# Six wells per plate per concentration of test composition (compound + CHP) and per control (HBSS without CHP) were measured and 12 wells were used as reference for CHP-induced stress. In addition, each 96-well plate contained 6 wells that received the highest concentration of the tested compounds without CHP, to investigate whether the compounds of the invention alone were able to induce cellular radical formation.
# When using this assay, it should be borne in mind that DCF fluorescence is a generalized indicator of oxidative stress rather than of any particular reactive species, i.e. it is not a direct assay for H2O2 or other reactive species (Halliwell B, Whiteman M. (2004) "Measuring reactive species and oxidative damage in vivo and in cell culture: how should you do it and what do the results mean?" Br. J. Pharmacol. 142 231-255). Therefore, when an increase in DCF fluorescence induced by exposure of cells to CHP was measured, as was carried out in these assays, it was not possible to deduce which reactive species was responsible. Inhibition of CHP-induced fluorescence was evaluated by means of different concentrations of the compounds of the invention and comparative compounds such as Trolox and edaravone.
row,SMILES,Inhibition of CHP-induced fluorescence
1,"CC1=NN(c2ccccc2)C(=O)C1C1COCCN1O (stereo not shown) [(11), 4-(4-hydroxymorpholin-3-yl)-3-methyl-1-phenyl-1H-pyrazol-5(4H)-one]",effective
2,"CC1=NN(c2ccccc2)C(=O)C1 [edaravone, reference compound]",10-50%
3,"CC1(C)CC(=O)C(C2COCCN2O)C(=O)C1 (stereo not shown) [(4), 2-(4-hydroxymorpholin-3-yl)-5,5-dimethylcyclohexane-1,3-dione]",effective
4,"O=C1c2ccccc2C(=O)C1C1COCCN1O (stereo not shown) [(8), 2-(4-hydroxymorpholin-3-yl)-2H-indene-1,3-dione]",effective
